The experiment deals with HT29 human colorectal adenocarcinoma cell line. Kind of experiment: cell proliferation assay (Cell Titer-Glo luminescent cell viability assay). Type of experiment: cell-based. The following applies: HT-29, cell proliferative assay, HT29 cells, 72 hr treatment, values given as ranges, read-out: pIC50 (converted). The method in brief: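 Cells grown in DMEM with 10% FBS and exposed to compounds for 72 h. Viability read by CellTiter-Glo luminescence, expressed as percentage of DMSO-treated cells.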

Here are results for two compounds from patent US20090291938A1 (TAKEDA PHARMACEUTICAL COMPANY LIMITED, priority 2007, published 2009).

Consider `CC#CC[C@@H]1CN(C2CCCC2)c2nc(Nc3ccc(C(=O)NC4CCN(C)CC4)cc3OC)ncc2N(C)C1=O` [Compound 216, (R)-4-(7-(but-2-ynyl)-9-cyclopentyl-5-methyl-6-oxo-6,7,8,9-tetrahydro-5H-pyrimido[4,5-b][1,4]diazepin-2-ylamino)-3-methoxy-N-(1-methylpiperidin-4-yl)benzamide], for which the IC50 was 1 to 2.51 nM.
Consider `C=CC[C@H]1CN(C2CCCC2)c2nc(Nc3ccc(C(=O)N[C@@H]4CCCNC4)cc3OC)ncc2N(C)C1=O` [Compound 200, 4-((S)-7-allyl-9-cyclopentyl-5-methyl-6-oxo-6,7,8,9-tetrahydro-5H-pyrimido[4,5-b][1,4]diazepin-2-ylamino)-3-methoxy-N-((R)-piperidin-3-yl)benzamide], for which the IC50 was 1 to 2.51 nM.
